According to US11267840B1, “Compound or salt thereof” (M.T.3, Inc., priority 2020, dated 2022):

What was measured:
[1] = tested on: adenocarcinomic human alveolar basal epithelial cell line A549 cells; assay: ROS production in A549 cells (CellROX Green fluorescence), test as candidate compound for radiosensitizer; format: cell-based; settings: 1 hour with test compound, CellROX Green 30 minutes, excitation 485 nm, detection 520 nm, FIG. 19
Protocol: Fetal bovine serum (FBS) (manufactured by Sigma-Aldrich) was added to RPMI1640 (manufactured by Sigma-Aldrich) such that a final concentration was 10%. Further, penicillin G potassium (manufactured by Meiji Seika) and Streptomycin (manufactured by Meiji Seika) were each added in an amount of 0.1 mg/mL, and the thus obtained solution was used as a culture medium in the following test. Also, a CellROX Green Reagent solution (manufactured by Thermo Fisher Scientific) was used as a reagent.
Adenocarcinomic human alveolar basal epithelial cell line A549 cells were suspended in the RPMI1640 medium (1.0×10^5 cells/mL), and the suspension was poured into a 96-well plate in an amount of 100 μL for each well. Thereafter, the cells were cultivated under a 5% CO2 moisture-saturated condition at 37° C. so as to attach to the plate, and after the cultivation was performed for 24 hours, the medium was removed by suction and the cells were washed with PBS. Next, 100 μL of PBS and 100 μL of a suspension of the test compound suspended in PBS ([…]) were separately added. […] After the cultivation was performed for 30 minutes, washing was performed using PBS, and fluorescence intensity at an excitation wavelength of 485 nm and a detection wavelength of 520 nm was measured.

[2] = target: T1, lipase for organic synthesis (Lipase PS Amano SD) (Burkholderia cepacia, UniProt P22088); format: in vitro ADME
T1 construct: purchased FUJIFILM Wako Pure Chemical Corporation
T1 sequence (P22088 45-364): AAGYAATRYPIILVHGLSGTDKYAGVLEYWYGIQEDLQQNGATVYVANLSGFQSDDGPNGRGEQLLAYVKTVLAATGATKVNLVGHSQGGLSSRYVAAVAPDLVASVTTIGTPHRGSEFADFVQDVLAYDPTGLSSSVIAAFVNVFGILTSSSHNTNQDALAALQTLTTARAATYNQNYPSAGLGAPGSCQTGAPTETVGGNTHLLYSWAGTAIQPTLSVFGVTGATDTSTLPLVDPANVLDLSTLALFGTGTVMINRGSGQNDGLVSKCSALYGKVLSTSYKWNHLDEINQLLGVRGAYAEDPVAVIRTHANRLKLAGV
Protocol: The test compound and lipase for organic synthesis (Lipase PS Amano SD, manufactured by FUJIFILM Wako Pure Chemical Corporation) were each adjusted using PBS so as to have a concentration of 1.3 μg/μL. Next, the thus obtained reaction solution was developed by TLC using an eluent (chloroform:methanol=1:1) and was analyzed. A sample that was taken before reaction progressed, a sample that was taken when 2 hours elapsed, and a sample that was taken when 4 hours elapsed were each used as the reaction solution to be developed. As for the reaction solution in which the compound (A) was used as the test compound, analysis was also performed on a sample that was taken when 18 hours elapsed from the start of reaction. TLC aluminum sheet silica gel 60 F254 (manufactured by Merck) was used as the TLC.

Question: For “3-(n-octadecyloxy)-n-propyl-α-D-quinovopyranoside sodium salt [compound (A)]”, which “ROS production (ROS production ratio, fluorescence intensity relative to PBS only = 1)” value [1] is on record?
Answer: Its value is “induced production of the ROS”.

Question: What about the “resistance to hydrolysis compared with the sulfopyranosylacyl propanediol derivative” value ([2]; lipase, overall conclusion of FIG. 20) of the same substance?
Answer: Its value is “more excellent resistance to hydrolysis”.

Question: And the “decomposition of the test compound by lipase (TLC)” value ([2]; when 18 hours elapsed from the start of reaction, compound and lipase each 1.3 μg/μL in PBS, FIG. 20)?
Answer: Its value is “not completely decomposed”.
